Data published in patent publication US20060167096A1, “Livestock products with an increased ppar/rxr heterodimer activator level” (priority 2003, published 2006).
Like-named read-outs stand apart in the source and are kept apart here.

Assays:
PPAR alpha = biological target: T1, PPAR alpha (Homo sapiens, UniProt Q07869); details: cited from earlier work
T1 sequence (Q07869 1-468): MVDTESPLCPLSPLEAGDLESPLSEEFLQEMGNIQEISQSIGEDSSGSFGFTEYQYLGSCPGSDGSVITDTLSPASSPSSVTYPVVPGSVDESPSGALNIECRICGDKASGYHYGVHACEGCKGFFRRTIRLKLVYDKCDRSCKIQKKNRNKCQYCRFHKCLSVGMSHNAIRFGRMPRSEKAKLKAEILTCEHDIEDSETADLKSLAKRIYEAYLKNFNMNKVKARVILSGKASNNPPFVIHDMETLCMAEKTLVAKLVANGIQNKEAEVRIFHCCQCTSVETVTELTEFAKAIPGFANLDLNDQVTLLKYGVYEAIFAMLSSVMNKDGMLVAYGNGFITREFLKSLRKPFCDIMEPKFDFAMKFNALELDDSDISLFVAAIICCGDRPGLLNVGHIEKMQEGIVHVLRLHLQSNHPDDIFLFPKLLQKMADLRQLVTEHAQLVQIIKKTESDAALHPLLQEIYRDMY

RXR = details: cell research; Kitareewan 1996; cited from earlier work
Hybrid boars = assay: Pork finishing trial with phytol sprayed feed; format: in vivo, pig
Experimental: (§1) In the present specification the level of the PPAR/RXR heterodimer activator is expressed as a percentage of total FAME fatty acids. These total FAME fatty acids comprise those fatty acids with a linear chain of at least 12 carbons and are measured by the so-called FAME technique, which is well known for the skilled person and wherein, first, fatty acid methyl esters are prepared which are, subsequently, analysed via gas chromatography. The FAME procedure used for determining the results obtained by the present invention was as follows. Lipids were extracted from the samples using a dissolving solution that is specific to each sample type. Nonadecanoic acid (19:0) was added as an internal standard. The two-step methylation procedure consisted of using a basic reagent NaOH/methanol followed by an acid reagent HCI/methanol. The fatty acid methyl esters (FAME) were analyzed by GC (HP 6890, Hewlett-Packard, Brussels, Belgium) using a CP-Sil88 column for FAME (100 m×250 μm×0.25 μm) (Chrompack, Middelburg, The Netherlands). The GC conditions were as adapted to each sample type. Peaks were identified by comparison of retention times with those of the corresponding standards (Sigma, Botnew, Belgium; Nu-Chek-Prep, Elysian, M N). Identification of the peaks included fatty acids between 12:0 and 22:6 and 5 different CLA isomers and phytanic acid and pristanic acid.
Hybrid boars weighing in at about 80 kg were kept lege artis and fed a standard finishing granulated feed sprayed on with phytol at a level of 2% of feed weight. The feed was formulated and produced by Schatteman in Wetteren, Belgium and contained on average about 7% of humidity. On spraying, the feed readily absorbed this oily substance. […] Tissue samples were taken and the carcass quality assessed. The carcasses were further butchered in the usual fashion to chops, loins, sausages and the like and the meat quality of the prime cuts was assessed.
The quality was assessed objectively using the following parameters: % meat on the carcass, type-index, meat class, meat moisture, meat color, meat temperature and meat pH change.

[1] = test system: Tiger shrimp (Penaeus Monodon); assay: Shrimp feeding trial with phytol supplemented diet; format: in vivo; details: 2% phytol diet, 4 weeks
laboratory animals = details: Steinberg 1966, cited from earlier work
ISABROWN layers = assay: Layer feeding trial with phytol supplemented feed; format: in vivo; details: 2% phytol in feed, compared with standard layer diet
ROSS 308 broiler chicks = assay: Broiler feeding trial with phytol supplemented feed; format: in vivo, chicken; details: 42 days
Experimental: as §1
ROSS 308 broiler chicks were raised, lege artis, on an ad libitum diet, containing phytol at 2% by weight of feed that, characteristically, contains about 10% of humidity. The chicks consumed an average of about 0.1 kg dry weight of the feed per day. The phytol in the diet replaced 2% of the soybean oil included in feeds formulated based on the INVE Nutritional Requirement standard formula for a grower feed (formula 120). Please refer to the following tables for the feed formula and for its chemical composition.
The animals were slaughtered after 42 days and their tissues sampled for analysis.

lean pork = details: cited from earlier work
Chicken meat = details: max 1.5% CLA in diet, Szymczyk 2001; cited from earlier work
striped bass = details: max 0.6% CLA in diet, Twibell 2000; cited from earlier work
Carp = details: max 1% CLA in diet, Choi 1999; cited from earlier work
yellow perch = details: max 0.6% CLA in diet, Twibell 2001; cited from earlier work
PPAR gamma = biological target: T2, PPAR gamma (Homo sapiens, UniProt P37231); details: Houseknecht 1998, Yu 2002; cited from earlier work
T2 sequence (P37231 1-505): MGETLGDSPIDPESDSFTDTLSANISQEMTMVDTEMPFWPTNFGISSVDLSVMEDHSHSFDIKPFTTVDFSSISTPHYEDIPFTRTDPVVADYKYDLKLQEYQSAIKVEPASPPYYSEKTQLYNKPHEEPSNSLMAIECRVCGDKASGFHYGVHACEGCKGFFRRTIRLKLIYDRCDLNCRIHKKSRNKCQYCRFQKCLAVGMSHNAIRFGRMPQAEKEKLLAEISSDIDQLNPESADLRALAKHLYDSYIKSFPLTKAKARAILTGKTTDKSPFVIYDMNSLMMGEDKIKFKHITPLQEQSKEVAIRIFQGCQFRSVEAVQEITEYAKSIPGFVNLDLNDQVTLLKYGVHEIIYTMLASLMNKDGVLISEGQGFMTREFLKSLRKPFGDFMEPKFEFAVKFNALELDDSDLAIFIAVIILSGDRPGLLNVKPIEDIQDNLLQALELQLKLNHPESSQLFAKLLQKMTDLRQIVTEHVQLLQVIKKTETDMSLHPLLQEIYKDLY

egg yolk = details: cited from earlier work

CC(C)CCC[C@@H](C)CCC[C@@H](C)CCCC(C)CC(=O)O (some centres unmarked) [PhA, tetramethylhexadecanoic acid]
PPAR alpha activation (PPAR alpha; physiologic concentrations, Ellinghaus 1999): potent activator of PPAR alpha | RXR ligand (RXR): ligand of RXR

C/C(=C\CO)CCC[C@H](C)CCC[C@H](C)CCCC(C)C [phytol]
sickness or death (Hybrid boars; 2% phytol feed, entire finishing period): no animals got sick or died | content of PhA and PrA in the pork meat (Hybrid boars; male, hybrid, pig, in vivo, 1 month): 2.3 % of total FAME fatty acids | feeding behavior or level of activity (Hybrid boars; pig, in vivo): no difference | survival rate ([1]; vs standard diet): no difference | growth (weight at end of feeding trial) ([1]; start 0.7 g): 2.05 g | morbidity (growth retardation, weight loss and lethargy) (laboratory animals; from levels of supplementation of 1% of diet weight on): substantial morbidity | mortality (laboratory animals; levels of 5% of diet weight): serious mortality rates | mortality nor morbidity (ISABROWN layers): no difference | mortality or morbidity (ROSS 308 broiler chicks; 2% phytol in feed, compared with standard broiler feed): no difference | PhA average level in breast meat (ROSS 308 broiler chicks; ROSS 308, chicken, in vivo): 2.6 % of total fatty acids | content of PhA in the breast meat, one subgroup (ROSS 308 broiler chicks; ROSS 308, chicken, in vivo): around 1.9% | content of PhA in the breast meat, other subgroup (ROSS 308 broiler chicks; ROSS 308, chicken, in vivo): around 3.6%

conjugated linoleic acid [CLA]
PPAR alpha agonism (PPAR alpha; Moya-Camarena 1999): agonist of PPAR alpha | max of TFA (maximum level of CLA in product as percent of total fatty acids) (lean pork; lean pork (>100 kg), max 1% CLA in diet, Thiel-Cooper 2001): 0.7% | max of TFA (maximum level of CLA in product as percent of total fatty acids) (lean pork; lean pork (>100 kg), max 5% CLA in diet, Joo 2002): 1.6% | max of TFA (maximum level of CLA in product as percent of total fatty acids) (lean pork; lean pork (up to 55 kg), max 1.4% CLA in diet, Ramsey 2001): 3.2% | max of TFA (maximum level of CLA in product as percent of total fatty acids) (Chicken meat): 10.27% | max of TFA (maximum level of CLA in product as percent of total fatty acids) (striped bass): 8.1% | max of TFA (maximum level of CLA in product as percent of total fatty acids) (Carp): 13% | max of TFA (maximum level of CLA in product as percent of total fatty acids) (yellow perch): 2.92% | PPAR gamma agonism (PPAR gamma): agonist of PPAR gamma | max of TFA (maximum level of CLA in product as percent of total fatty acids) (egg yolk; max 2% CLA in diet, Shafer 2001): 7.95% | max of TFA (maximum level of CLA in product as percent of total fatty acids) (egg yolk; max 3% CLA in diet, Raes 2002): 5.3% | max of TFA (maximum level of CLA in product as percent of total fatty acids) (egg yolk; max 5% CLA in diet, Chamruspollert 1999): 11.2%
